Test results published in patent US6689773B2, “Uracil substituted phenyl sulfamoyl carboxamides” (BASF Aktiengesellschaft, priority 2000, dated 2004).

Assays:
Assay type in all cases: in vivo
[1] = tested on: AMBEL, Ragweed, Common, Ambrosia artemiisifolia, L.; assay: Preemergence herbicidal evaluation (Example 148); conditions: rating scale 0-9, two to four weeks after treatment
Method: (§1) The scale is based upon a visual observation of plant stand, vigor, malformation, size, chlorosis and overall plant appearance as compared with a control.
(§2) The herbicidal activity of the compounds of the present invention was evaluated by the following tests wherein the seeds of a variety of monocotyledonous and dicotyledonous plants were separately mixed with potting soil and planted on top of approximately one inch of soil in separate pint cups. After planting, the cups were sprayed with the selected aqueous acetone solution containing test compound in sufficient quantity to provide the equivalent of about 0.125 to 0.250 kg per hectare of test compound per cup. The treated cups were then placed on greenhouse benches, watered and cared for in accordance with conventional greenhouse procedures. From two to four weeks after treatment, the tests were terminated and each cup was examined and rated according to the rating system provided in Example 94. When more than one test was performed for a given compound, the data were averaged.

[2] = tested on: DIGSA, Crabgrass, (Hairy) L, Digitaria sanguinalis, (L)Scop; assay: Preemergence herbicidal evaluation (Example 148); conditions: rating scale 0-9, two to four weeks after treatment
Method: as §1, §2

[3] = tested on: GLXMA, Soybean, Glycine max, (L.) Merr.; assay: Preemergence herbicidal evaluation (Example 148); conditions: rating scale 0-9, two to four weeks after treatment
Method: as §1, §2

[4] = tested on: ALOMY, Blackgrass, Alopecurus myosuroides; assay: Preemergence herbicidal evaluation (Example 148); conditions: rating scale 0-9, two to four weeks after treatment
Method: as §1, §2

[5] = tested on: ECHCG, Barnyardgrass, Echinochloa crusgalli, (L.)Beau; assay: Preemergence herbicidal evaluation (Example 148); conditions: rating scale 0-9, two to four weeks after treatment
Method: as §1, §2

[6] = tested on: IPOHE, Morningglory, Ivyleaf, Ipomoea hederacea, (L)Jacq.; assay: Preemergence herbicidal evaluation (Example 148); conditions: rating scale 0-9, two to four weeks after treatment
Method: as §1, §2

[7] = tested on: XANST, Cocklebur, Xanthium strumariam; assay: Preemergence herbicidal evaluation (Example 148); conditions: rating scale 0-9, two to four weeks after treatment
Method: as §1, §2

[8] = tested on: ABUTH, Velvetleaf, Abutilon theophrasti, Medic.; assay: Preemergence herbicidal evaluation (Example 148); conditions: rating scale 0-9, two to four weeks after treatment
Method: as §1, §2

[9] = tested on: CHEAL, Lambsquarters, Chenopodium album, L. Common; assay: Preemergence herbicidal evaluation (Example 148); conditions: rating scale 0-9, two to four weeks after treatment
Method: as §1, §2

[10] = tested on: SETVI, Green foxtail, Setaria viridis, (L.)Beau; assay: Preemergence herbicidal evaluation (Example 148); conditions: rating scale 0-9, two to four weeks after treatment
Method: as §1, §2

[11] = tested on: TRZAW, Winter wheat, Tritium Aestivum, L. (Winter); assay: Preemergence herbicidal evaluation (Example 148); conditions: rating scale 0-9, two to four weeks after treatment
Method: as §1, §2

[12] = tested on: ZEAMX, Field corn, Zea mays L.; assay: Preemergence herbicidal evaluation (Example 148); conditions: rating scale 0-9, two to four weeks after treatment
Method: as §1, §2

[13] = tested on: AMBEL, Ragweed, Common, Ambrosia artemiisifolia, L.; assay: Postemergence herbicidal evaluation (Example 147); conditions: rating scale 0-9, two to three weeks after treatment
Method: (§3) Seedling plants were grown in jiffy flats for about two weeks. The test compounds were dispersed in 80/20 acetone/water mixtures containing 1.0% SUN-IT®II, a methylated seed oil, in sufficient quantities to provide the equivalent of about 0.016 to 0.032 kg per hectare of active compound when applied to the plants through a spray nozzle operating at 40 psi for a predetermined time. After spraying, the plants were placed on greenhouse benches and were cared for in accordance with conventional greenhouse procedures. Approximately two to three weeks after treatment, the seedling plants were examined and rated according to the rating scale (0-9) set forth below. Where more than one test is involved for a given compound, the data are averaged. [table] The scale is based upon a visual observation of plant stand, vigor, malformation, size, chlorosis and overall plant appearance as compared with a control. Plant species employed in these evaluations are reported by header abbreviation, common name and scientific name. [table]

[14] = tested on: DIGSA, Crabgrass, (Hairy) L, Digitaria sanguinalis, (L)Scop; assay: Postemergence herbicidal evaluation (Example 147); conditions: rating scale 0-9, two to three weeks after treatment
Method: as §3

[15] = tested on: GLXMA, Soybean, Glycine max, (L.) Merr.; assay: Postemergence herbicidal evaluation (Example 147); conditions: rating scale 0-9, two to three weeks after treatment
Method: as §3

[16] = tested on: ALOMY, Blackgrass, Alopecurus myosuroides; assay: Postemergence herbicidal evaluation (Example 147); conditions: rating scale 0-9, two to three weeks after treatment
Method: as §3

[17] = tested on: ECHCG, Barnyardgrass, Echinochloa crusgalli, (L.)Beau; assay: Postemergence herbicidal evaluation (Example 147); conditions: rating scale 0-9, two to three weeks after treatment
Method: as §3

[18] = tested on: IPOHE, Morningglory, Ivyleaf, Ipomoea hederacea, (L)Jacq.; assay: Postemergence herbicidal evaluation (Example 147); conditions: rating scale 0-9, two to three weeks after treatment
Method: as §3

[19] = tested on: ABUTH, Velvetleaf, Abutilon theophrasti, Medic.; assay: Postemergence herbicidal evaluation (Example 147); conditions: rating scale 0-9, two to three weeks after treatment
Method: as §3

[20] = tested on: CHEAL, Lambsquarters, Chenopodium album, L. Common; assay: Postemergence herbicidal evaluation (Example 147); conditions: rating scale 0-9, two to three weeks after treatment
Method: as §3

[21] = tested on: SETVI, Green foxtail, Setaria viridis, (L.)Beau; assay: Postemergence herbicidal evaluation (Example 147); conditions: rating scale 0-9, two to three weeks after treatment
Method: as §3

[22] = tested on: TRZAW, Winter wheat, Tritium Aestivum, L. (Winter); assay: Postemergence herbicidal evaluation (Example 147); conditions: rating scale 0-9, two to three weeks after treatment
Method: as §3

[23] = tested on: ZEAMX, Field corn, Zea mays L.; assay: Postemergence herbicidal evaluation (Example 147); conditions: rating scale 0-9, two to three weeks after treatment
Method: as §3

SMILES: C#CCNS(=O)(=O)NC(=O)c1cc(-n2c(=O)cc(C(F)(F)F)n(C)c2=O)c(F)cc1Cl [Example 71]
- Preemergence herbicidal rating AMBEL ([1]; rate 0.125 kg/ha): 8.0
- Preemergence herbicidal rating AMBEL ([1]; rate 0.25 kg/ha): 8.0
- Preemergence herbicidal rating DIGSA ([2]; rate 0.125 kg/ha): 0.0
- Preemergence herbicidal rating DIGSA ([2]; rate 0.25 kg/ha): 3.0
- Preemergence herbicidal rating GLXMA ([3]; rate 0.125 kg/ha): 0.0
- Preemergence herbicidal rating GLXMA ([3]; rate 0.25 kg/ha): 2.0
- Preemergence herbicidal rating ALMOY ([4]; rate 0.125 kg/ha): 0.0
- Preemergence herbicidal rating ALMOY ([4]; rate 0.25 kg/ha): 0.0
- Preemergence herbicidal rating ECHCG ([5]; rate 0.125 kg/ha): 0.0
- Preemergence herbicidal rating ECHCG ([5]; rate 0.25 kg/ha): 3.0
- Preemergence herbicidal rating IPOHE ([6]; rate 0.125 kg/ha): 9.0
- Preemergence herbicidal rating IPOHE ([6]; rate 0.25 kg/ha): 9.0
- Preemergence herbicidal rating XANST ([7]; rate 0.125 kg/ha): 0.0
- Preemergence herbicidal rating XANST ([7]; rate 0.25 kg/ha): 7.0
- Preemergence herbicidal rating ABUTH ([8]; rate 0.125 kg/ha): 9.0
- Preemergence herbicidal rating ABUTH ([8]; rate 0.25 kg/ha): 9.0
- Preemergence herbicidal rating CHEAL ([9]; rate 0.125 kg/ha): 9.0
- Preemergence herbicidal rating CHEAL ([9]; rate 0.25 kg/ha): 7.0
- Preemergence herbicidal rating SETVI ([10]; rate 0.125 kg/ha): 0.0
- Preemergence herbicidal rating SETVI ([10]; rate 0.25 kg/ha): 2.0
- Preemergence herbicidal rating TRZAW ([11]; rate 0.125 kg/ha): 0.0
- Preemergence herbicidal rating TRZAW ([11]; rate 0.25 kg/ha): 0.0
- Preemergence herbicidal rating ZEAMX ([12]; rate 0.125 kg/ha): 0.0
- Preemergence herbicidal rating ZEAMX ([12]; rate 0.25 kg/ha): 1.0
- Postemergence herbicidal rating AMBEL ([13]; rate 0.016 kg/ha): 6.0
- Postemergence herbicidal rating AMBEL ([13]; rate 0.032 kg/ha): 9.0
- Postemergence herbicidal rating DIGSA ([14]; rate 0.016 kg/ha): 2.0
- Postemergence herbicidal rating DIGSA ([14]; rate 0.032 kg/ha): 3.0
- Postemergence herbicidal rating GLXMA ([15]; rate 0.016 kg/ha): 8.0
- Postemergence herbicidal rating GLXMA ([15]; rate 0.032 kg/ha): 8.0
- Postemergence herbicidal rating ALMOY ([16]; rate 0.016 kg/ha): 1.0
- Postemergence herbicidal rating ALMOY ([16]; rate 0.032 kg/ha): 1.0
- Postemergence herbicidal rating ECHCG ([17]; rate 0.016 kg/ha): 2.0
- Postemergence herbicidal rating ECHCG ([17]; rate 0.032 kg/ha): 3.0
- Postemergence herbicidal rating IPOHE ([18]; rate 0.016 kg/ha): 8.0
- Postemergence herbicidal rating IPOHE ([18]; rate 0.032 kg/ha): 9.0
- Postemergence herbicidal rating ABUTH ([19]; rate 0.016 kg/ha): 9.0
- Postemergence herbicidal rating ABUTH ([19]; rate 0.032 kg/ha): 9.0
- Postemergence herbicidal rating CHEAL ([20]; rate 0.016 kg/ha): 5.0
- Postemergence herbicidal rating CHEAL ([20]; rate 0.032 kg/ha): 5.0
- Postemergence herbicidal rating SETVI ([21]; rate 0.016 kg/ha): 4.0
- Postemergence herbicidal rating SETVI ([21]; rate 0.032 kg/ha): 5.0
- Postemergence herbicidal rating TRZAW ([22]; rate 0.016 kg/ha): 4.5
- Postemergence herbicidal rating TRZAW ([22]; rate 0.032 kg/ha): 4.5
- Postemergence herbicidal rating ZEAMX ([23]; rate 0.016 kg/ha): 6.5
- Postemergence herbicidal rating ZEAMX ([23]; rate 0.032 kg/ha): 6.5

SMILES: CN(c1ccccc1)S(=O)(=O)NC(=O)c1cc(-n2c(=O)cc(C(F)(F)F)n(C)c2=O)c(F)cc1Cl [Example 73]
- Preemergence herbicidal rating AMBEL ([1]; rate 0.125 kg/ha): 9.0
- Preemergence herbicidal rating AMBEL ([1]; rate 0.25 kg/ha): 9.0
- Preemergence herbicidal rating DIGSA ([2]; rate 0.125 kg/ha): 3.0
- Preemergence herbicidal rating DIGSA ([2]; rate 0.25 kg/ha): 3.0
- Preemergence herbicidal rating GLXMA ([3]; rate 0.125 kg/ha): 0.0
- Preemergence herbicidal rating GLXMA ([3]; rate 0.25 kg/ha): 0.0
- Preemergence herbicidal rating ALMOY ([4]; rate 0.125 kg/ha): 0.0
- Preemergence herbicidal rating ALMOY ([4]; rate 0.25 kg/ha): 0.0
- Preemergence herbicidal rating ECHCG ([5]; rate 0.125 kg/ha): 0.0
- Preemergence herbicidal rating ECHCG ([5]; rate 0.25 kg/ha): 3.0
- Preemergence herbicidal rating IPOHE ([6]; rate 0.125 kg/ha): 9.0
- Preemergence herbicidal rating IPOHE ([6]; rate 0.25 kg/ha): 9.0
- Preemergence herbicidal rating XANST ([7]; rate 0.125 kg/ha): 3.0
- Preemergence herbicidal rating XANST ([7]; rate 0.25 kg/ha): 9.0
- Preemergence herbicidal rating ABUTH ([8]; rate 0.125 kg/ha): 9.0
- Preemergence herbicidal rating ABUTH ([8]; rate 0.25 kg/ha): 9.0
- Preemergence herbicidal rating CHEAL ([9]; rate 0.125 kg/ha): 9.0
- Preemergence herbicidal rating CHEAL ([9]; rate 0.25 kg/ha): 9.0
- Preemergence herbicidal rating SETVI ([10]; rate 0.125 kg/ha): 2.0
- Preemergence herbicidal rating SETVI ([10]; rate 0.25 kg/ha): 5.0
- Preemergence herbicidal rating TRZAW ([11]; rate 0.125 kg/ha): 0.0
- Preemergence herbicidal rating TRZAW ([11]; rate 0.25 kg/ha): 0.0
- Preemergence herbicidal rating ZEAMX ([12]; rate 0.125 kg/ha): 0.0
- Preemergence herbicidal rating ZEAMX ([12]; rate 0.25 kg/ha): 0.0
- Postemergence herbicidal rating AMBEL ([13]; rate 0.016 kg/ha): 9.0
- Postemergence herbicidal rating AMBEL ([13]; rate 0.032 kg/ha): 9.0
- Postemergence herbicidal rating DIGSA ([14]; rate 0.016 kg/ha): 4.0
- Postemergence herbicidal rating DIGSA ([14]; rate 0.032 kg/ha): 6.0
- Postemergence herbicidal rating GLXMA ([15]; rate 0.016 kg/ha): 8.5
- Postemergence herbicidal rating GLXMA ([15]; rate 0.032 kg/ha): 8.5
- Postemergence herbicidal rating ALMOY ([16]; rate 0.016 kg/ha): 2.0
- Postemergence herbicidal rating ALMOY ([16]; rate 0.032 kg/ha): 3.0
- Postemergence herbicidal rating ECHCG ([17]; rate 0.016 kg/ha): 4.0
- Postemergence herbicidal rating ECHCG ([17]; rate 0.032 kg/ha): 7.0
- Postemergence herbicidal rating IPOHE ([18]; rate 0.016 kg/ha): 9.0
- Postemergence herbicidal rating IPOHE ([18]; rate 0.032 kg/ha): 9.0
- Postemergence herbicidal rating ABUTH ([19]; rate 0.016 kg/ha): 9.0
- Postemergence herbicidal rating ABUTH ([19]; rate 0.032 kg/ha): 9.0
- Postemergence herbicidal rating CHEAL ([20]; rate 0.016 kg/ha): 8.0
- Postemergence herbicidal rating CHEAL ([20]; rate 0.032 kg/ha): 9.0
- Postemergence herbicidal rating SETVI ([21]; rate 0.016 kg/ha): 4.0
- Postemergence herbicidal rating SETVI ([21]; rate 0.032 kg/ha): 5.0
- Postemergence herbicidal rating TRZAW ([22]; rate 0.016 kg/ha): 5.5
- Postemergence herbicidal rating TRZAW ([22]; rate 0.032 kg/ha): 6.5
- Postemergence herbicidal rating ZEAMX ([23]; rate 0.016 kg/ha): 7.0
- Postemergence herbicidal rating ZEAMX ([23]; rate 0.032 kg/ha): 7.5
